Measured values taken from ChEMBL document CHEMBL2074086, “Cloning, in vitro expression, and tissue distribution of a human prostaglandin transporter cDNA(hPGT)” (J Clin Invest, 1996).

molecular target: Solute carrier organic anion transporter family member 2A1 (Homo sapiens, UniProt Q92959); test: TP_TRANSPORTER: uptake in PGT-expressing HeLa cells; assay type: functional, cell-based

| Structure (SMILES) | K1/2 [µM] | Activity |
| --- | --- | --- |
| CCCCC[C@H](O)/C=C/[C@@H]1[C@@H](C/C=C\CCCC(=O)O)[C@@H](O)C[C@H]1O [DINOPROST] | 0.092 |  |
| CCCCC[C@H](O)/C=C/[C@H]1[C@H](O)CC(=O)[C@@H]1CCCCCCC(=O)O [ALPROSTADIL] | 0.082 |  |
| CCCCC[C@H](O)/C=C/[C@H]1[C@H](O)CC(=O)[C@@H]1C/C=C\CCCC(=O)O [DINOPROSTONE] | 0.1 |  |
| CC#CCC(C)[C@H](O)/C=C/[C@@H]1[C@H]2C/C(=C/CCCC(=O)O)C[C@H]2C[C@H]1O (stereo partly specified) [ILOPROST] |  | is not a substrate [-] |

Other lines, results leading:

| K1/2 [µM] | Activity | Structure (SMILES) |
| --- | --- | --- |
| 0.083 |  | CCCCC[C@H](O)/C=C/[C@H]1C(=O)C[C@H](O)[C@@H]1C/C=C\CCCC(=O)O [PROSTAGLANDIN D2] |
| 0.182 |  | CCCCC[C@H](O)/C=C/[C@H]1OC(O)C[C@H](O)[C@@H]1C/C=C\CCCC(=O)O (stereo partly specified) [THROMBOXANE B2] |
